Measurements from publication PMC7168933, “Design, Synthesis and Biochemical Evaluation of Novel Ethanoanthracenes and Related Compounds to Target Burkitt’s Lymphoma” (Pharmaceuticals, 2020).
Like-named read-outs stand apart in the source and are kept apart here.

Key:
[1] = system: MUTU-1 Burkitt lymphoma cell line (EBV+); details: 24 h
[2] = system: DG-75 Burkitt's lymphoma cell line; assay: FITC Annexin V/PI FACS analysis of apoptosis in DG-75 cells; assay type: cell-based; details: 48 h
Experimental: (§1) BL cells DG-75 and MUTU-1 (750,000) were treated with the specified concentration of the selected compound and incubated for 24 h (MUTU-1) or 48 h (DG-75) with taxol as the positive control. Samples were harvested by centrifugation and the pellets were rinsed with 0.5 mL of Ca^2+ Annexin V binding buffer (0.1 M HEPES, pH 7.4; 1.4 M NaCl; 25 mM CaCl2) each and pelleted again by centrifugation. Supernatants were decanted and the pellets were suspended again in 50 µL FITC Annexin V (diluted 1:33 in Ca^2+ Annexin V binding buffer), the samples were then placed on ice and incubated for 10 min in the dark. After the incubation period 0.5 mL of Ca^2+ Annexin V binding buffer was added and samples were pelleted by centrifugation. The supernatant was decanted and the pellet was suspended in PI solution (500 µL; 0.5 µg/mL). After 1 h, the samples were recorded using a CyAn ADP flow cytometer (Beckman Coulter Inc., Brea, CA, USA). 10,000 cells were analysed with the Flowjo software package. Taxol was used as a positive control for cell death.

[3] = system: MUTU-1 Burkitt lymphoma cell line (EBV+); assay: cells; details: Mutu-1, 24 h; for IC50: read-out: IC50 MUTU-I 24 h; for viability at 1 µM: read-out: MUTU-1 Cell Viability % 1 μM, 1 μM, 24 h; for viability at 10 µM: read-out: MUTU-1 Cell Viability % 10 μM, 10 μM, 24 h
[4] = system: DG-75 Burkitt lymphoma cell line (EBV−, chemoresistant); assay: cells; details: Homo sapiens, DG-75, 48 h; for viability at 1 µM: read-out: DG-75 Cell Viability % 1 μM, 1 μM, 48 h; for viability at 10 µM: read-out: DG-75 Cell Viability % 10 μM, 10 μM, 48 h; for IC50: read-out: IC50 DG-75 48 h
[5] = system: DG-75 Burkitt lymphoma cell line (EBV−, chemoresistant); details: 48 h
[6] = system: MUTU-1 Burkitt's lymphoma cell line; assay: FITC Annexin V/PI FACS analysis of apoptosis in MUTU-I cells; assay type: cell-based; details: 24 h
Experimental: as §1

[7] = HPLC stability study in phosphate buffers; assay type: physicochemical
Experimental: The HPLC stability studies for compound 16a were performed using a Symmetry® column (C18, 5 µm, 4.6 × 150 mm), detector Waters 2487 Dual Wavelength Absorbance, HPLC pump: Waters 1525 binary and Autosampler: Waters 717 plus (Waters Corporation, Milford, MA, USA). Samples were detected at wavelength of 254 nm. The chromatography was performed with the following optimised conditions: mobile phase: (acetonitrile (80%): water (20%)), run time: 10 min, flow rate: 1 mL/min, with detection at 254 nm. Compound 16a (5 mg) was dissolved in the mobile phase (10 mL) to provide the stock solution for the experiment. The phosphate buffers were prepared following the British Pharmacopoeia monograph 2019 at the selected pH 4, pH 7.4 and pH 9. To a volume of the appropriate buffer (1 mL), stock solution (30 μL) was added, and the solution was shaken and then used immediately for the experiment. Samples of the solution were then analysed over the following 48 h period at selected time intervals (t = 0 min, 5 min, 30 min, 60 min, 90 min, 120 min, 24 h and 48 h).

Structure (SMILES) | apoptosis in DG-75 at 1 µM [2] [%] | apoptosis in DG-75 at 10 µM [2] [%] | IC50 [3] [nM] | viability at 1 µM [3] [%] | viability at 1 µM [4] [%] | viability at 10 µM [4] [%] | IC50 [4] [nM] | DG-75 Cell Viability % 10 μM [5] [%] | apoptosis in MUTU-I at 1 µM [6] | apoptosis in MUTU-I at 10 µM [6] | melting point [°C] | cell viability in MUTU-I cell line (1 and 10 μM together or concentration not stated) [1] | viability at 10 µM [3] [%] | DG-75 Cell Viability % 1 μM [5] [%] | other results
O=[N+]([O-])/C=C/c1c2ccccc2cc2ccccc12 [Compound 12a, (E)-9-(2-nitrovinyl)anthracene] | 10 | 82 | 2570 | 81.9 | 94.6 | < 14 | 2080 | 14.0 | little effect | 90% | – | – | – | – | MUTU-1 Cell Viability % 10 μM [1]: 5.9%
C/C(=C\C12c3ccccc3C(c3ccccc31)C1C(=O)OC(=O)C12)[N+](=O)[O-] (stereo not drawn) [Compound 13b, (E)-9-(2-Nitroprop-1-en-1-yl)-9,10-dihydro-9,10-[3,4]furanoanthracene-12,14-dione] | – | – | – | 11.7 | 1 | 0.47 | – | – | – | – | 256 to 258 | 7–24% | 7.2 | 1.1 | –
O=C1NC(=O)C2C1C1c3ccccc3C2(/C=C/[N+](=O)[O-])c2ccccc21 (stereo not drawn) [Compound 13g, (E)-9-(2-Nitrovinyl)-9,10-dihydro-9,10-[3,4]epipyrroloanthracene-12,14-dione] | – | – | – | 0.47 | 1 | 11.7 | – | – | – | – | 176 to 178 | – | 7.2 | 1.1 | –
O=C1NC(=O)C2C1C1(Cl)c3ccccc3C2(C=C[N+](=O)[O-])c2ccccc21 (stereo not drawn) [Compound 13j, (E)-9-Chloro-10-(2-nitrovinyl)-9,10-dihydro-9,10-[3,4]epipyrroloanthracene-12,14-dione] | – | 90 | 250 | < 1 | 12.1 | 5.9 | 780 | – | – | – | – | 0.4–13.5% | 0.62 | – | MUTU-1 Cell Viability % 1 μM [1]: 0.70%; cell viability in DG-75 cell line (1 and 10 μM together or concentration not stated) [5]: 0.4–13.5%; apoptosis in MUTU-I at 0.5 µM [6]: > 90%
O=C1C2C3c4ccccc4C(C=C[N+](=O)[O-])(c4ccccc43)C2C(=O)N1c1ccccc1 (stereo not drawn) [Compound 16a, (E)-9-(2-Nitrovinyl)-13-phenyl-9,10-dihydro-9,10-[3,4]epipyrroloanthracene-12,14-dione] | – | 92 | 210 | 10 | – | 1.1 | 710 | – | over 80% | over 80% | – | – | 1.4 | < 6 | MUTU-1 Cell Viability % 1 μM [1]: 10.3%; half-life at 14.6 µg/mL ([7]; pH 4 phosphate buffer, read-out: half-life (t½) at pH 4 (converted)): 11 h; half-life at 14.6 µg/mL ([7]; pH 7.4 phosphate buffer, read-out: half-life (t½) at pH 7.4 (converted)): 10.5 h; half-life at 14.6 µg/mL ([7]; pH 9 phosphate buffer, read-out: half-life (t½) at pH 9): > 24 h; apoptosis in DG-75 at lower concentrations ([2]; concentrations lower than 10 µM): < 5%; apoptosis in MUTU-I at 0.2 µM [6]: 46%; apoptosis in MUTU-I at 0.5 µM [6]: over 80%
O=C1C2C(C(=O)N1c1ccccc1)C1(/C=C/[N+](=O)[O-])c3ccccc3C2(Cl)c2ccccc21 (stereo not drawn) [Compound 16d, (E)-9-Chloro-10-(2-nitrovinyl)-13-phenyl-9,10-dihydro-9,10-[3,4]epipyrroloanthracene-12,14-dione] | 15 | 44 | 220 | 0.77 | < 14 | 5.1 | 590 | – | – | – | – | 0.4–13.5% | 0.41 | 13.5 | cell viability in DG-75 cell line (1 and 10 μM together or concentration not stated) [5]: 0.4–13.5%; apoptosis in MUTU-I at 0.2 µM [6]: 63%
N#C/C=C/C12c3ccccc3C(c3ccccc31)C1C(=O)NC(=O)C12 (stereo not drawn) [Compound 23b, (E)-3-(12,14-Dioxo-9,10-[3,4]epipyrroloanthracen-9(10H)-yl)acrylonitrile] | – | – | – | 79.4 | 101 | 54 | – | 54.1 | – | – | 289 to 300 | – | 79 | – | –
N/N=C/C12c3ccccc3C(Cl)(c3ccccc31)C1C(=O)NC(=O)C12 (stereo not drawn) [Compound 23i, (E)-9-Chloro-10-(hydrazonomethyl)-9,10-dihydro-9,10-[3,4]epipyrroloanthracene-12,14-dione] | – | – | – | 102 | 85.8 | 19 | – | 18.9 | – | – | 241 to 244 | – | 106 | – | –
CC(=O)O[C@H]1C(=O)[C@@]2(C)[C@H]([C@H](OC(=O)c3ccccc3)[C@]3(O)C[C@H](OC(=O)[C@H](O)[C@@H](NC(=O)c4ccccc4)c4ccccc4)C(C)=C1C3(C)C)[C@]1(OC(C)=O)CO[C@@H]1C[C@@H]2O [Taxol, taxol, reference compound] | 21 | 73 | 320 | 30.4 | 48.8 | 10 | 1320 | 9.9 | 63% | 87% | – | – | 10 | – | MUTU-1 Cell Viability % 10 μM [1]: 9.8%
